The record followed here is ChEMBL document CHEMBL5291721, “A preclinical secondary pharmacology resource illuminates target-adverse drug reaction associations of marketed drugs” (Nat Commun, 2023).

A word on the AC50: it is the concentration giving half of the maximal activity seen.

The target in assay [1] is T1, B1 bradykinin receptor (Homo sapiens, UniProt P46663).
T1 sequence (P46663 whole entry): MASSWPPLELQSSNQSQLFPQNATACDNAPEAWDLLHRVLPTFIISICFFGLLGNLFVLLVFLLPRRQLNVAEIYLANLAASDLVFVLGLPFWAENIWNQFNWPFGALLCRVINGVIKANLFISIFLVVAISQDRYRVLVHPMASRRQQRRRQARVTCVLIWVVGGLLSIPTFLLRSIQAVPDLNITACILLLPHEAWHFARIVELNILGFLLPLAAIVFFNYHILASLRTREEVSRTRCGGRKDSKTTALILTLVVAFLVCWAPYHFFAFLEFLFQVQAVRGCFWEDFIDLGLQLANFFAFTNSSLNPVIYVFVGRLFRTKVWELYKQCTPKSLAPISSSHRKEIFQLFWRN

The target of assay [2] is Estrogen receptor beta (Homo sapiens, UniProt Q92731).
Estrogen receptor beta, sequence (Q92731 whole entry): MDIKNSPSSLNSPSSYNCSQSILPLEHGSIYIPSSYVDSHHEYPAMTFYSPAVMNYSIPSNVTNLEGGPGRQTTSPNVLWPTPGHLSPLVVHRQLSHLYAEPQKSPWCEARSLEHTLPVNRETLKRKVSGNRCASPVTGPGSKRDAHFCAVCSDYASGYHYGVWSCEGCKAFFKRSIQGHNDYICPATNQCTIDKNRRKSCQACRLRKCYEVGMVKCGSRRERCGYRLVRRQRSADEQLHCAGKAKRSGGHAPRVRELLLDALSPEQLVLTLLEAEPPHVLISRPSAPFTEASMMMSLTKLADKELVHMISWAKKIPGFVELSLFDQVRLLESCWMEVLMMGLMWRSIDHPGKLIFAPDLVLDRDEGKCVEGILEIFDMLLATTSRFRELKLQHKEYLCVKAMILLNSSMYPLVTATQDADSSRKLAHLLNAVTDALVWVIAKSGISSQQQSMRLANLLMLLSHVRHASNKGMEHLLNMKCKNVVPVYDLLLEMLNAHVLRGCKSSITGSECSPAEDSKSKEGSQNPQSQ
Assay [3] deals with Gamma-aminobutyric acid type B receptor subunit 1 (Homo sapiens, UniProt Q9UBS5).
Gamma-aminobutyric acid type B receptor subunit 1, sequence (Q9UBS5 whole entry): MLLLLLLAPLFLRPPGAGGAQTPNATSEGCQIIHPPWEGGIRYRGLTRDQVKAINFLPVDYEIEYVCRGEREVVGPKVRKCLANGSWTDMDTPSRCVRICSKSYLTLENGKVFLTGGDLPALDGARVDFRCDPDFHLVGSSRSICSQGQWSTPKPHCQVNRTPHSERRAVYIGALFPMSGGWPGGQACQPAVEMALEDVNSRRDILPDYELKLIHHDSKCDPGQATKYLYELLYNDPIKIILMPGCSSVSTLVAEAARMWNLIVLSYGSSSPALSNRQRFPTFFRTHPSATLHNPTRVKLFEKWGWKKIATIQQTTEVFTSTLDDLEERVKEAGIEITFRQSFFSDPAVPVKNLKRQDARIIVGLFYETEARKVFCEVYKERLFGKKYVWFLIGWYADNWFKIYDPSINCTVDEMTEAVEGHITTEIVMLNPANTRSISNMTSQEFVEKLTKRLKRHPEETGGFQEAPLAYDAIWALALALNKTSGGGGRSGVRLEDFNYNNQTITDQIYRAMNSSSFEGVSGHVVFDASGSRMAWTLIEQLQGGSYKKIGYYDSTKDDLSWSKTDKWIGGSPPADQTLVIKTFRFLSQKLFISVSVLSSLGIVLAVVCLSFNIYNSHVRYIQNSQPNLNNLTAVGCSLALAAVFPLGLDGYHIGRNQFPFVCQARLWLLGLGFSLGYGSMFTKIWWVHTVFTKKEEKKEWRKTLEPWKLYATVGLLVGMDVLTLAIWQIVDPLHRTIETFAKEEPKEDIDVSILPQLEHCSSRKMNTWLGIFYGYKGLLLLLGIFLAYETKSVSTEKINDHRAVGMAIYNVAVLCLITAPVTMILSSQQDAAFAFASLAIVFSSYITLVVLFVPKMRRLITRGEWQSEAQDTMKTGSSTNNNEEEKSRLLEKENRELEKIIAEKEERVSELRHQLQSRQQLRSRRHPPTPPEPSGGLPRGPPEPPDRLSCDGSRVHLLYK
Assay [4] addresses 5-hydroxytryptamine receptor 6 (Homo sapiens, UniProt P50406).
For assay [5], the target named is 5-hydroxytryptamine receptor 7 (Homo sapiens, UniProt P34969).
5-hydroxytryptamine receptor 7, sequence (P34969 whole entry): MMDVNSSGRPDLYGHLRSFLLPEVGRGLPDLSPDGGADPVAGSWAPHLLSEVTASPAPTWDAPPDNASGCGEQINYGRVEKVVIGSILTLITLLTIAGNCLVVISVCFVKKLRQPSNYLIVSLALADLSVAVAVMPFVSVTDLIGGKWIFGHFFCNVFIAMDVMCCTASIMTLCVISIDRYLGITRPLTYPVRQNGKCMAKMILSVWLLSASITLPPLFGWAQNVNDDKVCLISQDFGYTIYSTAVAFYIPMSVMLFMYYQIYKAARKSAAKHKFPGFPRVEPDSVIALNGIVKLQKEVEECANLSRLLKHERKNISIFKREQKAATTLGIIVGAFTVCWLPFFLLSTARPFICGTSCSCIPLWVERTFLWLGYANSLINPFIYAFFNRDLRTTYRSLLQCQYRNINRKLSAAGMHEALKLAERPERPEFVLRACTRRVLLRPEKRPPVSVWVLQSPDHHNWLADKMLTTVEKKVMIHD
Assay [6] has as its target Substance-P receptor (Homo sapiens, UniProt P25103).
For assay [7], the target named is T2, Alpha-1A adrenergic receptor (Homo sapiens, UniProt P35348).
T2 sequence (P35348 whole entry): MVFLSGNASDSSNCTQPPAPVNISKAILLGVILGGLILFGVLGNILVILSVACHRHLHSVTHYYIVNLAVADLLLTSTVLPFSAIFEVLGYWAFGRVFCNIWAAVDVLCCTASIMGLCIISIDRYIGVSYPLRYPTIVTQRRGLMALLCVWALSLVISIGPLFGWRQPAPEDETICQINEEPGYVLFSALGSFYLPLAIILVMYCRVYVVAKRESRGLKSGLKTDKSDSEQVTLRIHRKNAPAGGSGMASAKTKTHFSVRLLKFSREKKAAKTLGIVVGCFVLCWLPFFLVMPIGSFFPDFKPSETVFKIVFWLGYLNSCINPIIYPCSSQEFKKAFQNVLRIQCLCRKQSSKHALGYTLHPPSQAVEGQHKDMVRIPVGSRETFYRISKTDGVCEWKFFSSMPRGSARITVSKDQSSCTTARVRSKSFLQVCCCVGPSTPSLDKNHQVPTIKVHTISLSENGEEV

Assay [8] deals with Acetylcholinesterase (Homo sapiens, UniProt P22303). In kind it is functional.
Acetylcholinesterase, sequence (P22303 whole entry): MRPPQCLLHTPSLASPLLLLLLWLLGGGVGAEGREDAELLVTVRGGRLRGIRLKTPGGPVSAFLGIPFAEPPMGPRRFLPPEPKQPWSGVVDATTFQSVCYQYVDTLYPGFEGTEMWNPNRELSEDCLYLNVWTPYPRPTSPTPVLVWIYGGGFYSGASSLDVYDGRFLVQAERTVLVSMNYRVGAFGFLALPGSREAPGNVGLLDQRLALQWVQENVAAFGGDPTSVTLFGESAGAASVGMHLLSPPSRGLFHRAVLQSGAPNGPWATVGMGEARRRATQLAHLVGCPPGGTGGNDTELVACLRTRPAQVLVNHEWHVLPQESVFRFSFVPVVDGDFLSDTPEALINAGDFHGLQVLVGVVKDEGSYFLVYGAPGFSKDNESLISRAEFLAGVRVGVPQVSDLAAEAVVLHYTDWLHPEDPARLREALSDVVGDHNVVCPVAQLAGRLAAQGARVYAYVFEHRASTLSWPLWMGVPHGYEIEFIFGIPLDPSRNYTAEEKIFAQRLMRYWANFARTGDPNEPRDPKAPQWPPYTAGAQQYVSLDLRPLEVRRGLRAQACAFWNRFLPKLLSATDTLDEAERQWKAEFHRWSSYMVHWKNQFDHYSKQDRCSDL
Assay [9] concerns the target T3, Androgen receptor (Rattus norvegicus, UniProt P15207).
T3 sequence (P15207 whole entry): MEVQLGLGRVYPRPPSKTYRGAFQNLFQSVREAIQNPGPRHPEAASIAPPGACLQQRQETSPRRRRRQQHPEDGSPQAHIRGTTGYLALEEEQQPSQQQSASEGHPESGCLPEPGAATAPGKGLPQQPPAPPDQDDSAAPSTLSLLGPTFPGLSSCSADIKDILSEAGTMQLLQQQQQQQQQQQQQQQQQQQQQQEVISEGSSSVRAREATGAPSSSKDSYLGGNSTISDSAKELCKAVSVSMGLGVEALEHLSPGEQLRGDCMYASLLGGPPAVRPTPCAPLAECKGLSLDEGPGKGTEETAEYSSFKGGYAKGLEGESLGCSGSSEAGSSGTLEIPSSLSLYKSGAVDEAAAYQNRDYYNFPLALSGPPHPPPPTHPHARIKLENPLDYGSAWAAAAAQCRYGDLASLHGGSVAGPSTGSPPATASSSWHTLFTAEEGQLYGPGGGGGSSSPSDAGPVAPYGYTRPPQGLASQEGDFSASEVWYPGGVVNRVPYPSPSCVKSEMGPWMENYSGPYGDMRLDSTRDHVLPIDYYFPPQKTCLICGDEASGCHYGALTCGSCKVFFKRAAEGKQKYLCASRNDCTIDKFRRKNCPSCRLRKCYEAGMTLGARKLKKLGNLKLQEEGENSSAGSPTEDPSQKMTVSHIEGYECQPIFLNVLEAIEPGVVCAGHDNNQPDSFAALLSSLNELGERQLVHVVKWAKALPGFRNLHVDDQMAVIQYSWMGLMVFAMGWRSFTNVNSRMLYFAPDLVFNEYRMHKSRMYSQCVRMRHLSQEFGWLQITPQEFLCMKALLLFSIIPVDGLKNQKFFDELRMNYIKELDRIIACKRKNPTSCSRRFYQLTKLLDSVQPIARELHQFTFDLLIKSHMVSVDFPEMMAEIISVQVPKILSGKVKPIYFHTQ

For assay [10], the target named is 5-hydroxytryptamine receptor 2A (Homo sapiens, UniProt P28223).
5-hydroxytryptamine receptor 2A, sequence (P28223 whole entry): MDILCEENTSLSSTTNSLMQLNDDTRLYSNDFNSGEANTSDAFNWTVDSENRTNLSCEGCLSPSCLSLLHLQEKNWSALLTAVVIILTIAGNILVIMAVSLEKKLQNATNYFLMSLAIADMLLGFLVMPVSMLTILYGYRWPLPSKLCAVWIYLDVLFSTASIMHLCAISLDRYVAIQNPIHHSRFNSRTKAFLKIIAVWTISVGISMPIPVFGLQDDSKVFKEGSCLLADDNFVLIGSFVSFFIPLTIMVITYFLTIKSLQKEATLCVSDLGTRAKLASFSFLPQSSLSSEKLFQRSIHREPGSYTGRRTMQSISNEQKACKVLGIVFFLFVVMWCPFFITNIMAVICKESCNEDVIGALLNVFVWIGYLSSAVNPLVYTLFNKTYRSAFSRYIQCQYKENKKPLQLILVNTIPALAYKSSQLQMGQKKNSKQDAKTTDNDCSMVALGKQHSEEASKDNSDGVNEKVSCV
Assay [11] deals with T4, Muscarinic acetylcholine receptor M2 (Homo sapiens, UniProt P08172).
T4 sequence (P08172 whole entry): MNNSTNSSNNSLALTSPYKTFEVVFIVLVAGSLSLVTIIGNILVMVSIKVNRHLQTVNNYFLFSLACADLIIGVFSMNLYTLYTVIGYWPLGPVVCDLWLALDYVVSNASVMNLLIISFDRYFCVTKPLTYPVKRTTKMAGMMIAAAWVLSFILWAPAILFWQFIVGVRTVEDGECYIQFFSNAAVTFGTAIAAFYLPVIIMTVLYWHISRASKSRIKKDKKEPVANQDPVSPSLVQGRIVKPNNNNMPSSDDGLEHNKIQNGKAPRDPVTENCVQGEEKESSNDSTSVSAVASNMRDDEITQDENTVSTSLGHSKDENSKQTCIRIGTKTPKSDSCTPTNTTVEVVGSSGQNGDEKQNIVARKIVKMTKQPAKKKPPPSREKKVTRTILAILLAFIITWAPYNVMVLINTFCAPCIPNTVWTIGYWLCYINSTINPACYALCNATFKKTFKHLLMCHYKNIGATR

The target in assay [12] is Histamine H1 receptor (Homo sapiens, UniProt P35367). In kind it is functional, cell-based.
Histamine H1 receptor, sequence (P35367 whole entry): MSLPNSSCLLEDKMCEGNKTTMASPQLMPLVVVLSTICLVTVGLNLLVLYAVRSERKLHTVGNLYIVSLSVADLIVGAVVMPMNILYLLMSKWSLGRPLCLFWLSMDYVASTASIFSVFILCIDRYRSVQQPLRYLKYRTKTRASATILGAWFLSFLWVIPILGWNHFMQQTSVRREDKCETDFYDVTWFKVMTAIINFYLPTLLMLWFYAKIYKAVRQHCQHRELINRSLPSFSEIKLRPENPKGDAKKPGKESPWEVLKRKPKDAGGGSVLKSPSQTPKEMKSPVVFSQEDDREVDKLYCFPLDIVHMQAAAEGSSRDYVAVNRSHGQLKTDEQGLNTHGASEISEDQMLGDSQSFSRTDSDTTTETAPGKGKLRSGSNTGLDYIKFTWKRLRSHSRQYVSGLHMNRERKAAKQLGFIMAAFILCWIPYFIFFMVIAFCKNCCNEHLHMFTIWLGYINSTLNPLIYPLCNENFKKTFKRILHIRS
For assay [13], the target named is Voltage-dependent L-type calcium channel subunit alpha-1C (Homo sapiens, UniProt Q13936). The format is functional, cell-based.
Assay [14] addresses Hydroxycarboxylic acid receptor 2 (Homo sapiens, UniProt Q8TDS4).
The target in assay [15] is D(1A) dopamine receptor (Homo sapiens, UniProt P21728).
Assay [16] deals with Beta-1 adrenergic receptor (Homo sapiens, UniProt P08588). The format is functional, cell-based.
Beta-1 adrenergic receptor, sequence (P08588 whole entry): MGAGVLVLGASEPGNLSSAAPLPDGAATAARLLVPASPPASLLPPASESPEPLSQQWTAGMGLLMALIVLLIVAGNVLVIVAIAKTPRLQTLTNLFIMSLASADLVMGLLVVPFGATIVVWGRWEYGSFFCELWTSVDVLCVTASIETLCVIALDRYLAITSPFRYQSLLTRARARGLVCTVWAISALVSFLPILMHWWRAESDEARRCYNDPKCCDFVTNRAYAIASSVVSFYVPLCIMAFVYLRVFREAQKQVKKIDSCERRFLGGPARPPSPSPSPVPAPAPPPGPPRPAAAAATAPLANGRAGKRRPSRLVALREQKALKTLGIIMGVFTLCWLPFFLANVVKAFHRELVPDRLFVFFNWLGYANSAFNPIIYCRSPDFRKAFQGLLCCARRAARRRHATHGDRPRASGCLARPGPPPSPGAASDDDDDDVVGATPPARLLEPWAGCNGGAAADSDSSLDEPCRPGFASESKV

Some results are limits rather than exact numbers.
Further: assay procedure not described here.

Substance-P receptor, sequence (P25103 whole entry): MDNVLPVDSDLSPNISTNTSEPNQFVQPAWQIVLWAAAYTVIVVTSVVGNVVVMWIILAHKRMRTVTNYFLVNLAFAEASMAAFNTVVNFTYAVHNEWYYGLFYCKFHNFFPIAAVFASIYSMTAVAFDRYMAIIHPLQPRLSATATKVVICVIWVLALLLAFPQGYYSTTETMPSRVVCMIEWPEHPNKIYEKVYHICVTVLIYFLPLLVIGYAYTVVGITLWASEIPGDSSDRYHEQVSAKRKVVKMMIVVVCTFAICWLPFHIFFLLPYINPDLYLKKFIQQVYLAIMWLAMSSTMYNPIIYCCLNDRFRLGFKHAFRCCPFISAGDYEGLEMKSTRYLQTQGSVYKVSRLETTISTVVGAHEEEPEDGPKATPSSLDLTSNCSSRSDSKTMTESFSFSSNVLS
5-hydroxytryptamine receptor 6, sequence (P50406 whole entry): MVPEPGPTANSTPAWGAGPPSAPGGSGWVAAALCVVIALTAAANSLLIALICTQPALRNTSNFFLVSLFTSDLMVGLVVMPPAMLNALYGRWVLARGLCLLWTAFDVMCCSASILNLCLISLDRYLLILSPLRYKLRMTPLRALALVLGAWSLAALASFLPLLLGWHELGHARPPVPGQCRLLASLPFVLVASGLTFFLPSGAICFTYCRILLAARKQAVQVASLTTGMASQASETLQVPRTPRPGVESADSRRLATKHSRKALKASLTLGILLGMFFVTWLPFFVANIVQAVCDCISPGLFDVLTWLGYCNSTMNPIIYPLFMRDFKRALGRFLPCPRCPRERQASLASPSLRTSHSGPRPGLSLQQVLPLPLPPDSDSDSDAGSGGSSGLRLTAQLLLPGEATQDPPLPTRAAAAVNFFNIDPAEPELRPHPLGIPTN

In the case of `CCOC(=O)[C@H](CCc1ccccc1)N[C@@H](C)C(=O)N1Cc2ccccc2C[C@H]1C(=O)O`, the AC50 is > 30 µM in [1]; > 30 µM in [2]; > 10 µM in assay [3]; > 10 µM in [4]; > 10 µM in assay [5]; > 10 µM in assay [6]. Besides, the AC50 in assay [7] is > 10 µM.

Regarding `CCC[C@@]1(CCc2ccccc2)CC(O)=C([C@H](CC)c2cccc(NS(=O)(=O)c3ccc(C(F)(F)F)cn3)c2)C(=O)O1`, the AC50 in assay [8] was > 30 µM.

With `C=CC1=C(C(=O)O)N2C(=O)[C@@H](NC(=O)/C(=N\O)c3csc(N)n3)[C@H]2SC1`, the AC50 in assay [9] is > 30 µM; in [10], > 10 µM.

In the case of `CC#CC(=O)N1CCC[C@H]1c1nc(-c2ccc(C(=O)Nc3ccccn3)cc2)c2c(N)nccn12` [ACALABRUTINIB], in assay [11], the AC50 is > 30 µM.

With `O=C(O)COC(=O)Cc1ccccc1Nc1c(Cl)cccc1Cl` [ACECLOFENAC], in assay [9], the AC50 was > 30 µM.

On to `CN(C)CCc1c[nH]c2ccc(CS(=O)(=O)N3CCCC3)cc12` [ALMOTRIPTAN], for which the AC50 in assay [12] was > 30 µM.

With `CN(C)CCC=C1c2ccccc2CCc2ccccc21` [AMITRIPTYLINE], the AC50 in [1] was > 30 µM; in [13], 32 µM; in assay [2] it was > 30 µM; in assay [14] it was > 10 µM; in [6], > 10 µM.

`CN1CC2c3ccccc3Oc3ccc(Cl)cc3C2C1` (stereo not drawn) [ASENAPINE]: the AC50 was > 30 µM in assay [8] and 0.01 µM in assay [15].

As for `CC(=O)Oc1ccccc1C(=O)O` [ASPIRIN], the AC50 is > 30 µM in assay [9]; > 30 µM in assay [1]; > 30 µM in assay [2]; > 10 µM in assay [3]; > 10 µM in assay [4]; > 10 µM in [5]. In addition, the AC50 in assay [6] was > 10 µM; in [7], > 10 µM; in [11], > 30 µM; in assay [15], > 30 µM.

As to `Cn1cnc2c(F)c(Nc3ccc(Br)cc3F)c(C(=O)NOCCO)cc21` [BINIMETINIB], the AC50 was > 50 µM in [13] and > 30 µM in [8].

In the case of `C[C@H](CS)C(=O)N1CCC[C@H]1C(=O)O` [CAPTOPRIL], the AC50 in [9] is > 30 µM.

With `CCN(CC)CCn1c(=O)c(Cc2ccc(OC)cc2)nc2ccccc21` [CAROVERINE], the AC50 in assay [16] was > 30 µM.

For the compound `C[C@H](CCC(=O)O)[C@H]1CC[C@H]2[C@@H]3[C@H](O)C[C@@H]4C[C@H](O)CC[C@]4(C)[C@H]3CC[C@]12C` [CHENODIOL], in [8], the AC50 is > 30 µM.

With `CN(C)CCCC1(c2ccc(F)cc2)OCc2cc(C#N)ccc21` (stereo not drawn) [CITALOPRAM], the AC50 in assay [1] was > 30 µM; in assay [2], > 30 µM; in [14] it was > 10 µM; in assay [6], > 10 µM.

As to `CC(C)/N=c1\cc2n(-c3ccc(Cl)cc3)c3ccccc3nc-2cc1Nc1ccc(Cl)cc1` [CLOFAZIMINE], in assay [16], the AC50 is > 30 µM.

Take `C[C@H](Nc1ncnc2[nH]cnc12)c1cc2cccc(Cl)c2c(=O)n1-c1ccccc1` [DUVELISIB]: in assay [8], the AC50 was > 30 µM.

For `C[C@]12CCC(=O)C=C1CC[C@H]1[C@@H]3CC[C@](O)(C(=O)CO)[C@@]3(C)C[C@H](O)[C@@]12F` [FLUDROCORTISONE], the AC50 in assay [1] is > 30 µM; in [2] it was > 30 µM; in assay [10], > 10 µM.

Consider `CCOC(=O)Nc1ccc(NCc2ccc(F)cc2)nc1N` [FLUPIRTINE], for which the AC50 in assay [16] is > 30 µM.

On to `OCCOCCN1CCN(C(c2ccccc2)c2ccc(Cl)cc2)CC1` (stereo not drawn) [HYDROXYZINE], for which the AC50 in [1] was > 30 µM; in [14] it was > 10 µM; in [12] it was 0.45 µM; in assay [4], 2.2 µM; in assay [5], 6.8 µM; in assay [6] it was > 10 µM. In addition, the AC50 worked out at 0.546 µM in assay [7] and 0.146 µM in assay [10].

Regarding `C[C@@H](O)[C@H]1C(=O)N2C(C(=O)O)=C(SCCN=CN)C[C@H]12` [IMIPENEM ANHYDROUS], the AC50 in assay [8] is > 300 µM.

Take `N#Cc1ccnc(N2C(=O)CC[C@H]2C(=O)N(c2cncc(F)c2)[C@H](C(=O)NC2CC(F)(F)C2)c2ccccc2Cl)c1` [IVOSIDENIB]: the AC50 in assay [13] is > 50 µM.

Regarding `Nc1nnc(-c2cccc(Cl)c2Cl)c(N)n1` [LAMOTRIGINE], the concentration at half-maximal activity (AC50) in assay [1] was > 30 µM; in assay [13] it was > 50 µM; in assay [2] it was > 30 µM; in assay [14], > 10 µM; in assay [6], > 10 µM; in assay [7], 11.1 µM.

In the case of `CC(=O)NC[C@H]1CN(c2ccc(N3CCOCC3)c(F)c2)C(=O)O1` [LINEZOLID], the AC50 in [13] is > 50 µM.

`O=C1[C@@H]2[C@H]3CC[C@H](C3)[C@@H]2C(=O)N1C[C@@H]1CCCC[C@H]1CN1CCN(c2nsc3ccccc23)CC1` [LURASIDONE]: the AC50 in assay [8] turned out to be 1.3 µM.

Take `CO[C@@H]1[C@@H](OC(N)=O)[C@@H](O)[C@H](Oc2ccc3c(O)c(NC(=O)c4ccc(O)c(CC=C(C)C)c4)c(=O)oc3c2C)OC1(C)C` [NOVOBIOCIN]: the AC50 in assay [8] is > 30 µM.

On to `C#CCN(C)Cc1ccccc1` [PARGYLINE], for which the AC50 in assay [12] was > 30 µM.

Turning to `CC(=O)SCC(Cc1ccccc1)C(=O)NCC(=O)OCc1ccccc1` (stereo not drawn) [RACECADOTRIL], in assay [10], the AC50 was > 10 µM.

In assay [10], `CCOc1ccccc1OCCN[C@H](C)Cc1ccc(OC)c(S(N)(=O)=O)c1` [TAMSULOSIN] had an AC50 of 14.4 µM.

In the case of `C[C@H](Cn1cnc2c(N)ncnc21)OCP(=O)(O)O` [TENOFOVIR ANHYDROUS], the AC50 in assay [9] was > 30 µM.

Regarding `Cc1c(C)c2c(c(C)c1O)CCC(C)(COc1ccc(CC3SC(=O)NC3=O)cc1)O2` (stereo not drawn) [TROGLITAZONE], the AC50 in [9] is 3.57 µM; in [1], > 30 µM; in assay [2], > 30 µM; in [3], > 10 µM.

Regarding `c1cnc2cc3c(cc2n1)[C@@H]1CNC[C@H]3C1` [VARENICLINE], the AC50 in [8] was > 30 µM.
